From ChEMBL document CHEMBL1145368, “Directed molecular screening for RecA ATPase inhibitors” (Bioorg Med Chem Lett, 2007)
Active and inactive are the calls of the source. No cut-off for these calls is given here.

How the values were obtained:
[1] = (§1) Inhibition of Escherichia coli RecA by ADP-linked fluorescent ATPase assay
[2] = test system: Escherichia coli; test: Inhibition of RecA-mediated DNA strand exchange reaction assessed as abrogation of nicked circular dsDNA formation at 100 uM
[3] = test system: Escherichia coli; test: as §1

Cc1ccc(C(=O)Nc2ccc(S(=O)(=O)O)c3cc(S(=O)(=O)O)cc(S(=O)(=O)O)c23)cc1NC(=O)c1cccc(NC(=O)Nc2cccc(C(=O)Nc3cc(C(=O)Nc4ccc(S(=O)(=O)O)c5cc(S(=O)(=O)O)cc(S(=O)(=O)O)c45)ccc3C)c2)c1 [SURAMIN]
IC50 [1]: 2000 nM
Activity [2]: Active

O=S(=O)(O)c1cccc2c(-c3ccc(Nc4ccccc4)c4c(S(=O)(=O)O)cccc34)ccc(Nc3ccccc3)c12
Activity [3]: Active

COc1cc(/C=C/C(=O)CC(=O)/C=C/c2ccc(O)c(OC)c2)ccc1O
Activity [3]: inactive

Nc1c(/N=N/c2ccc(-c3ccc(/N=N/c4cc(S(=O)(=O)O)c5ccccc5c4N)cc3)cc2)cc(S(=O)(=O)O)c2ccccc12
Activity [3]: Active
